In ChEMBL document CHEMBL5543140 (J Med Chem, 2024):
Active and inactive are the calls of the source. The calls are words filed in the database; no cut-off is given here.

Tests used:
[1] = target: 5-hydroxytryptamine receptor 2A (Homo sapiens, UniProt P28223); assay: Displacement of [3H]LSD from human 5-HT2A receptor expressed in HEK293 cell membrane incubated for 90 mins by microbeta liquid scintillation counting method; type: cell membranes
[2] = MRTlast in Wistar rat plasma at 1 mg/kg, iv measured upto 48 hrs; type: ADME, organism-based
[3] = Half life in male Sprague-Dawley rat brain at 1 mg/kg, iv measured upto 8 hrs by LC-MS/MS analysis; type: ADME, organism-based
Mus musculus [4] = assay: Psychedelic effect in C57BL/6J mouse assessed as development of tolerance/ tachyphylaxis at 0.3 mg/kg, sc measured on day 4 by head-twitch responses test; type: functional, organism-based; settings: time 4.0 day
[5] = target: T1, 5-hydroxytryptamine receptor 1A (Homo sapiens) (UniProt P08908); assay: Agonist activity at human 5-HT1A receptor expressed in HEK293T cells co-transfected with 22F-Glosensor assessed as maximal inhibition of cAMP production measured after 30 mins incubation by Microbeta2Micro-plate counter analysis relative to control; type: functional, cell-based; settings: filed as agonist
T1 sequence (whole entry): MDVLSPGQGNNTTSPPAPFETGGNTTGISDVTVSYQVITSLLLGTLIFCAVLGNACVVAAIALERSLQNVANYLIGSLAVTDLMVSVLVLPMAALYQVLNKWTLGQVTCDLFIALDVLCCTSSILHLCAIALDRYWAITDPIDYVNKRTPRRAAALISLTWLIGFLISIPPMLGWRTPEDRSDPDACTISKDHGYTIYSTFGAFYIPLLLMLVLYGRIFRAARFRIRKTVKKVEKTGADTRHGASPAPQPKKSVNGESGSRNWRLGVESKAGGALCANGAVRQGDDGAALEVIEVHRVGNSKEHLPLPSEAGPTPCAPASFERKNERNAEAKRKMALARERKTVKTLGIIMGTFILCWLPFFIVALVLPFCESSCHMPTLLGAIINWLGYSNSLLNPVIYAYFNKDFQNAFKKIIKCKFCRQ

Mus musculus [6] = assay: Locomotor activity in C57BL/6J mouse assessed as distance traveled at 10 mg/kg, po measured for 15 to 25 mins (reference value: 1710 +/- 120 cm) by Ethovision tracking system; type: functional; settings: time 15-25 min
[7] = Oral bioavailability in beagle dog at 2 mg/kg measured upto 24 hrs; type: ADME, organism-based, Canis lupus familiaris; settings: in vivo
[8] = target: 5-hydroxytryptamine receptor 1A (Homo sapiens, UniProt P08908); assay: Displacement of [3H]-8-OH-DPAT from 5-HT1A receptor (unknown origin) assessed as inhibition binding
[9] = target: Adrenergic receptor alpha-2 (Rattus norvegicus) (UniProt P22086+P19328+P22909); assay: Displacement of [3H]RX 821002 from rat cerebral cortex alpha2 adrenergic receptor assessed as remaining activity at 10 uM after 60 mins by scintillation counting method relative to control
[10] = Cmax in male Sprague-Dawley rat brain at 1 mg/kg, iv measured upto 8 hrs by LC-MS/MS analysis; type: ADME, organism-based
Hippocampus [11] = assay: Induction of neuroplasticity in C57BL/6J mouse assessed as increase in Homer 1 mRNA expression in brain hippocampus at 3 mg/kg, sc single dose by RT-PCR analysis; type: functional, organism-based
[12] = Ex vivo binding in C57BL/6J mouse brain frontal cortex assessed as specific binding [3H]Cimbi-36 at 1 mg/kg, sc measured after 160 mins by liquid scintillation counting analysis (reference value: 1092 +/- 53); type: functional; settings: 2.667 h
Mus musculus [13] = assay: Psychedelic effect in C57BL/6J mouse assessed as induction of 5-HT2A receptor dependent maximal head-twitch responses by visual observation at 1 mg/kg, sc measured after 24 hrs; type: functional, organism-based
[14] = MRTlast in Wistar rat plasma at 5 mg/kg, po measured upto 48 hrs; type: ADME, organism-based
Hippocampus [15] = assay: Induction of neuroplasticity in C57BL/6J mouse assessed as increase in CREB1 mRNA expression in brain hippocampus at 0.3 mg/kg, sc single dose by RT-PCR analysis; type: functional, organism-based
Mus musculus [16] = assay: Psychedelic effect in C57BL/6J mouse assessed as maximal number of 5-HT2A receptor dependent head-twitch responses by visual observation at 1 mg/kg, sc (reference value: 3); type: functional
[17] = Ex vivo binding in C57BL/6J mouse brain frontal cortex assessed as inhibition of [3H]Cimbi-36 binding at 1 mg/kg, sc measured after 5 mins by liquid scintillation counting analysis (reference value: 0%); type: functional
Mus musculus [18] = assay: Psychedelic effect in C57BL/6J mouse assessed as induction of 5-HT2A receptor dependent maximal head-twitch responses by visual observation at 1 mg/kg, sc at 40 mins post- administration; type: functional, organism-based
[19] = Half life in male Sprague-Dawley rat plasma at 1 mg/kg, iv measured upto 8 hrs by LC-MS/MS analysis; type: ADME, organism-based
[20] = target: 5-hydroxytryptamine receptor 3A (Homo sapiens) (UniProt P46098); assay: Binding affinity to human 5-HT3 receptor (unknown origin) at 10 uM by radioligand displacement assay
[21] = Ex vivo binding in C57BL/6J mouse brain frontal cortex assessed as specific binding [3H]Cimbi-36 at 1 mg/kg, sc measured after 40 mins by liquid scintillation counting analysis (reference value: 1092 +/- 53); type: functional
Mus musculus [22] = assay: Psychedelic effect in C57BL/6J mouse assessed as head-twitch responses reversibility by visual observation at 3 mg/kg, sc once a day for 3 days following treatment free for 48 hrs followed by redosed at 3 mg/kg, sc; type: functional, organism-based; settings: time 3.0 day
[23] = Cmax in Wistar rat plasma at 1 mg/kg, iv measured upto 48 hrs; type: ADME, organism-based
[24] = Ex vivo binding in C57BL/6J mouse brain frontal cortex assessed as specific binding [3H]Cimbi-36 at 1 mg/kg, sc measured after 100 mins by liquid scintillation counting analysis (reference value: 1092 +/- 53); type: functional; settings: 1.667 h
Mus musculus [25] = assay: Locomotor activity in C57BL/6J mouse assessed as distance traveled at 3 mg/kg, sc measured for 15 to 25 mins (reference value: 1710 +/- 120 cm) by Ethovision tracking system; type: functional; settings: time 15-25 min
[26] = AUCinf in male Sprague-Dawley rat CSF at 1 mg/kg, iv measured upto 8 hrs by LC-MS/MS analysis; type: ADME, organism-based, Cerebrospinal fluid
[27] = Ex vivo binding in C57BL/6J mouse brain frontal cortex assessed as inhibition of [3H]Cimbi-36 binding at 1 mg/kg, sc measured after 100 mins by liquid scintillation counting analysis (reference value: 0%); type: functional; settings: 1.667 h
Hippocampus [28] = assay: Induction of neuroplasticity in C57BL/6J mouse assessed as increase in mTOR mRNA expression in brain hippocampus at 3 mg/kg, sc single dose by RT-PCR analysis; type: functional, organism-based
[29] = Half life in Wistar rat plasma at 5 mg/kg, po measured upto 48 hrs; type: ADME, organism-based
[30] = AUClast in beagle dog at 0.4 mg/kg, iv measured upto 24 hrs; type: ADME, organism-based, Canis lupus familiaris; settings: in vivo
[31] = Unbound concentration in male Sprague-Dawley rat brain homogenate at 1 mg/kg, iv measured upto 8 hrs by LC-MS/MS analysis; type: ADME, organism-based

Chain of 5-hydroxytryptamine receptor 2A (P28223 whole entry): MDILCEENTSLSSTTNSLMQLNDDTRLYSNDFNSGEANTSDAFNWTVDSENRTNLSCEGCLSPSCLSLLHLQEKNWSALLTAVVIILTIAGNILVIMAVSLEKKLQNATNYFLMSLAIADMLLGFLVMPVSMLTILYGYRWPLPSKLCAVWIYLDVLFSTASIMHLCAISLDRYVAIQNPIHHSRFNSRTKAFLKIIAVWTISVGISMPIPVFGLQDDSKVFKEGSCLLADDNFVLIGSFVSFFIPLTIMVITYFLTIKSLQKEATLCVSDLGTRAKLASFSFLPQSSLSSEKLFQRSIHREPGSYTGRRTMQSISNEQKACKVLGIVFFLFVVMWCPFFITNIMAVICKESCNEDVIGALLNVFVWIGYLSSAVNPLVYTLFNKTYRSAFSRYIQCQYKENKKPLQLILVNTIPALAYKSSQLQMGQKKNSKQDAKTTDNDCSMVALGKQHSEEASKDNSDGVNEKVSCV
Chain of 5-hydroxytryptamine receptor 3A (Homo sapiens) (P46098 whole entry): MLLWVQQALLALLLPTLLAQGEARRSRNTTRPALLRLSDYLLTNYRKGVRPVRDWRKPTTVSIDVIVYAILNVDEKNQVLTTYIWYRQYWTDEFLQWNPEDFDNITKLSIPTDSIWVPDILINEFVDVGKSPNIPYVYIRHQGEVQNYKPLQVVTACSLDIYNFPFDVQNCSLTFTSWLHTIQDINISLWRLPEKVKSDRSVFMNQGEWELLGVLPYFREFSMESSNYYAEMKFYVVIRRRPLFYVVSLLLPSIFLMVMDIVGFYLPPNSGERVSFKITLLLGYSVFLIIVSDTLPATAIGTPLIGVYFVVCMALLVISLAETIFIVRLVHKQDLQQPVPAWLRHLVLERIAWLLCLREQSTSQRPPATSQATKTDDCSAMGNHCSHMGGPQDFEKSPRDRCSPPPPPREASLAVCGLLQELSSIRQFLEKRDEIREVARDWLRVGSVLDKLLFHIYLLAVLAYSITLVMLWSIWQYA

Q: Which Ki ([1]; read-out: Ki) does the source give for `COc1cc([Se]C(F)(F)F)c(OC)cc1CCN.Cl` here?
A: 3.2 nM

Q: What about the Ki ([1]; read-out: pKi (converted)) of the same compound?
A: 3.02 nM

Q: And the MRT last at 48 h [2]?
A: 0.62 h

Q: What about the half-life [3] of the same compound?
A: 1.34 h

Q: What about the Activity (Mus musculus [4]) of the same compound?
A: Active

Q: What about the Emax [5] of the same compound?
A: 92%

Q: And the Activity (Mus musculus [6])?
A: 1974 cm

Q: And the bioavailability [7]?
A: 138%

Q: What about the Ki [8] of the same compound?
A: 32 nM

Q: And the Activity [9]?
A: 97%

Q: What about the Cmax [10] of the same compound?
A: 1490 ng/mL

Q: What about the Activity (Hippocampus [11]) of the same compound?
A: inactive

Q: What about the Activity [12] of the same compound?
A: 736

Q: And the Activity (Mus musculus [13])?
A: inactive

Q: What about the MRT last at 48 h [14] of the same compound?
A: 2.25 h

Q: And the Activity (Hippocampus [15])?
A: inactive

Q: What about the Activity (Mus musculus [16]) of the same compound?
A: 17

Q: And the inhibition in vivo at 1 mg/kg [17]?
A: 13%

Q: What about the Activity (Mus musculus [18]) of the same compound?
A: Active

Q: And the half-life [19]?
A: 1.53 h

Q: What about the Activity [20] of the same compound?
A: inactive

Q: What about the Activity [21] of the same compound?
A: 732

Q: And the Activity (Mus musculus [22])?
A: Active

Q: And the Cmax [23]?
A: 54.1 ng/mL

Q: And the Activity [24]?
A: 820

Q: And the Activity (Mus musculus [25])?
A: 2446 cm

Q: What about the AUC(0-inf) [26] of the same compound?
A: 51.4 ng·h/mL

Q: What about the inhibition in vivo at 1 mg/kg [27] of the same compound?
A: 25%

Q: What about the Activity (Hippocampus [28]) of the same compound?
A: inactive

Q: What about the half-life [29] of the same compound?
A: 3.53 h

Q: What about the AUC(0-t) at 24 h [30] of the same compound?
A: 366 ng·h/mL

Q: What about the fraction unbound at 8 h [31] of the same compound?
A: 0.014
